In US20250186438A1, “TREATMENT OF CLEAR CELL RENAL CELL CARCINOMA” (RACE ONCOLOGY LTD, priority 2022, published 2025):
Where a name gives a salt, the structure may show the parent alone. Read-outs that look alike come from different tables or passages of the source.

Legend:
[1] = system: 786-O cells; assay: Resazurin cell viability assay, drug combinations with synergy analysis; format: cell-based, Human; conditions: 786-0 cell line; each drug in combination with zantrene; FIG. 1-3
Description: (§1) Cell viability was determined using a resazurin metabolic activity assay.
(§2) Resazurin is metabolised into the red-fluorescent resorufin by metabolically active cells. […] Graphpad Prism 9 software was used to generate graphs. Drug IC50 values were determined by cubic spline-lowess regression analysis using Prism 9. At least three independent replicates were performed for each cell line and each drug combination, and data is represented as mean±standard error of the mean (SEM). The culture conditions for each cell line are described below.
(§3) Detail on each of the methods is provided below.
It estimates the expected additive effect of two drugs using the fractional product of the effect of each drug alone, ie:
An observed Fa(Drug1+Drug2) value greater than the expected Fa(Drug1+Drug2) value result indicates synergy, whereas an observed Fa(Drug1+Drug2) lower than the expected value indicates antagonism.
(§4) Using the Henderson-Hasselbalch, Michaelis-Menten, Scatchard, and Hill equations, Chou and Talaly derived the “median-effect” equation to model the median effect dose and sigmoidicity of the dose-response curve, using the inputted doses and corresponding dose-effects. Chou and Talalay also coined the term “CombinationIndex (CI)” to evaluate the degree of synergy between two compounds, defined as: […]
(§5) Within SynergyFinder the Bliss model was used. This model quantifies the degree of synergy as the multiplicative effect of single drugs as if they acted independently. This independence model assumes a stochastic process in which two drugs elicit their effects independently, and the expected combination effect can be calculated based on the probability of independent events.

[2] = system: RCC4 EV cells (VHL(−) mutant); assay: Resazurin cell viability assay (combination synergy analysis; cytotoxic IC50); conditions: Homo sapiens, RCC4, 72 h, read-out: Cytotoxic IC50
Description: as §1, §2, §3, §4, §5

[3] = system: RCC4 EV cells (VHL(−) mutant); assay: Clonogenicity assay (colony formation); format: cell-based; conditions: Homo sapiens, ccRCC, VHL status Mut, 96 h drug then 96 h drug-free, read-out: Clonogenic IC50
Description: (§6) Clonogenicity assays—Clonogenicity assays were used to determine the colony-forming ability of cells treated with Zantrene. RCC4EV and RCC4 VHL Cells were seeded into 6-well plates at 1000 cells/well and allowed to adhere for 24 h. […] Drug-containing media was removed and replaced with freshmedia (without drug) and cultured for an additional 96 h to allow the formation of cell colonies. At endpoint, media was removed from wells and cells washed with cold PBS twice. Cells were fixed with ice-cold methanol for 10 minutes on ice followed immediately by staining with crystal violet solution (0.5% crystal violet, 25% methanol in PBS) at room temperature. Excess crystal violet solution was washed away and pictures of plates capturedon a ChemiDoc MP Imaging System (Bio-Rad). Images were analysed using the ColonyArea plugin [Guzman C. et al (2014), “ColonyArea: an ImageJ plugin to automatically quantify colony formation in clonogenic assays”, PLoS One, 9(3):e92444] for ImageJ [Schneider C. A. et at (2012), “NIH Image to ImageJ: 25 years of image analysis”, Nat Methods 9(7):671-675] and the percent area of the well filled by colonies determined and presented as % of untreated cells using Prism 9. Four independent replicates were performed for each cell line and data is represented as mean±SEM.

[4] = system: RCC4 VHL cells (VHL rescue line); assay: Clonogenicity assay (colony formation); format: cell-based; conditions: Homo sapiens, ccRCC, VHL status Mut + WT, 96 h drug then 96 h drug-free, read-out: Clonogenic IC50
Description: as §6

[5] = cited from earlier work
[6] = 5-day schedule of 60 min infusions
[7] = another trial, doses of 80-250 mg/m2
[8] = patients, 90 min infusion at 260 mg/m2, biphasic elimination
[9] = patients, 90 min infusion at 260 mg/m2
[10] = single dose study, triphasic elimination, first of three
[11] = single dose study, triphasic elimination, second of three

CNC(=O)c1cc(Oc2ccc(NC(=O)Nc3ccc(Cl)c(C(F)(F)F)c3)cc2)ccn1 [sorafenib]
Combination effect with zantrene, method of Webb analysis [1]: Synergy

COc1cc2nccc(Oc3ccc(NC(=O)NC4CC4)c(Cl)c3)c2cc1C(N)=O [lenvatinib]
Combination effect with zantrene, method of Webb analysis [1]: strongest synergy

C(=NNC1=NCCN1)c1c2ccccc2c(C=NNC2=NCCN2)c2ccccc12 [bisantrene, 9,10-anthracenedicarboxaldehyde bis[(4,5 dihydro-1H-imidazo-2-yl)hydrazine]dihydrochloride]
IC50 [2]: 907 nM
IC50 [3]: 167 nM
IC50 [4]: 483 nM
Dose excreted in the urine [5, 6]: 7.1%
t½ α [5, 6]: 0.9 h
t½ β [5, 6]: 9.7 h
Plasma concentration ([5]; 72 h infusion study, dose of 56 mg/m2): 12 ± 6 ng/mL
Plasma concentration ([5]; 72 h infusion study, dose of 260 mg/m2): 55 ± 8 ng/mL
Plasma clearance ([5]; 72 h infusion study): 1306±179 mL/min/m2
Calculated volume of distribution [5, 7]: 42.1 ± 5.9 L/kg
Clearance [5, 7]: 17.425 ± 0.85 mL/min/kg
Initial half-life [5, 7]: 0.6 h
Terminal half-life [5, 7]: 24.7 h
Administered dose excreted unchanged in the urine ([5]; in 24 h, 90 min infusion at 260 mg/m2): 11.3%
Urinary excretion of the dose ([5]; in 24 h, 72 h infusion study): 4.6%
Volume of distribution ([5]; one report, interpreted as tissue sequestration with depot effect): 687 L/m2
Administered dose found in the urine ([5]; over 96 h, doses of 80-250 mg/m2): 3.4±1.1%
Initial half-life [5, 8]: 1.08 ± 0.25 h
Terminal half-life [5, 8]: 19.03 ± 3.77 h
Plasma clearance [5, 9]: 735 mL/min/m2
Steady state volume of distribution (Vdss) [5, 9]: 1845 L/m2
t½ α [5, 10]: 0.0573 h
t½ β [5, 10]: 1.33 h
t½ γ [5, 10]: 26.13 h
t½ α [5, 11]: 0.05 h
t½ β [5, 11]: 1 h
t½ γ [5, 11]: 8 h

CO[C@H]1C[C@@H]2CC[C@@H](C)[C@@](O)(O2)C(=O)C(=O)N2CCCC[C@H]2C(=O)O[C@H]([C@H](C)C[C@@H]2CC[C@@H](OCCO)[C@H](OC)C2)CC(=O)[C@H](C)/C=C(\C)[C@@H](O)[C@@H](OC)C(=O)[C@H](C)C[C@H](C)/C=C/C=C/C=C/1C [everolimus]
Combination effect with zantrene, method of Webb analysis [1]: Synergy
